Assays:
Assay type in all cases: cell-based
[1] = tested on: SNU-16 (FGFR2-amplification) cells; assay: Cell proliferation assay (CellTiterGlo), SNU-16 cells; details: inhibition of cell growth, intracellular ATP (CellTiterGlo)
Excerpt: (§1) The following is a non-limiting example that describes a cell proliferation assay used to determine the biological activity of the compounds of the present disclosure. More specifically, the assay as used to assess the ability of the compounds to inhibit cell proliferation.
(§2) Briefly, SNU-16 (FGFR2-amplification) cells, were resuspended at 18,520c/ml mL in RPMI containing 10% Heat Inactivated FBS, 1% L-glutamine and dispensed in duplicate (463c/well) into 384 well plates. UM-UC-14 (FGFR3-S249C) cells were resuspended at 40.000c/ml mL in RPMI containing 10% Heat Inactivated FBS, 1% L-glutamine and dispensed in duplicate (1000c/well) into 384 well plates. DMS-114 (FGFR1 overexpression) cells and were resuspended at 40,000c/ml mL in RPMI containing 10% Heat Inactivated FBS, 1% L-glutamine and dispensed in duplicate (1000c/well) into 384 well plates. RT-112 (FGFR3-Tacc3 fusion) cells were resuspended at 40,000c/ml mL in RPMI containing 10% Heat Inactivated FBS, 1% L-glutamine and dispensed in duplicate (1000c/well) into 384 well plates. To determine the effect of the compounds of the present disclosure on cell proliferation, SNU-16, UM-UC-14, DMS-114 and RT112 cells were incubated for 72 hours in the presence of vehicle control (DMSO) or a compound of the present disclosure at varying concentrations. Inhibition of cell growth was subsequently determined by luminescent quantification (Envision by Perkin Elmer) of intracellular ATP content using CellTiterGlo (Promega), according to the protocol provided by the manufacturer. To determine the IC50 values, the vehicle-treated cells were normalized as viable cells and analyzed using the CDD Vault software (Collaborative Drug Discovery, Burlingame, CA).

[2] = tested on: DMS-114 (FGFR1 overexpression) cells; assay: Cell proliferation assay (CellTiterGlo), DMS-114 cells; details: Homo sapiens, 72 hours, inhibition of cell growth, intracellular ATP (CellTiterGlo)
Excerpt: as §1, §2

[3] = tested on: RT-112 (FGFR3-Tacc3 fusion) cells; assay: Cell proliferation assay (CellTiterGlo), RT-112 cells; details: Homo sapiens, RT-112, 72 h, RT112 cells, inhibition of cell growth, intracellular ATP (CellTiterGlo)
Excerpt: as §1, §2

[4] = tested on: UM-UC-14 (FGFR3-S249C) cells; assay: Cell proliferation assay (CellTiterGlo), UM-UC-14 cells; details: UMUC14, 72 h, inhibition of cell growth, intracellular ATP (CellTiterGlo)
Excerpt: as §1, §2

SMILES	IC50 ([1]; Homo sapiens, SNU-16, 72 h)	IC50 [2]	IC50 [3]	IC50 [4]	IC50 ([1]; 72 hours)
Cc1nc2ccc(Oc3ccc4ncc(-c5cnn(CC6CC(C)OC(C)C6)c5)nc4c3Cl)cc2[nH]1 (centres unmarked) [Compound 1]	20 to 100 nM	20 to 100 nM			
Cc1nc2ccc(Oc3ccc4ncc(-c5cnn(CC6CCOC6)c5)nc4c3Cl)cc2[nH]1 (centres unmarked) [Compound 2]	20 to 100 nM	≥ 400 nM	20 to 100 nM	20 to 100 nM	
Cc1nc2ccc(Oc3ccc4ncc(-c5cnn(CC6CCN(C)C(C)(C)C6)c5)nc4c3Cl)cc2[nH]1 (centres unmarked) [Compound 3]	20 to 100 nM	100 to 400 nM	20 to 100 nM	20 to 100 nM	
Cc1nc2ccc(Oc3ccc4ncc(-c5cnn(CC6CCN(C)C6)c5)nc4c3Cl)cc2[nH]1 (centres unmarked) [Compound 4]	20 to 100 nM	100 to 400 nM	20 to 100 nM	20 to 100 nM	
Cc1nc2ccc(Oc3ccc4ncc(-c5cnn(CC6CC(C)N(C)C(C)C6)c5)nc4c3Cl)cc2[nH]1 (centres unmarked) [Compound 5]	20 to 100 nM	≥ 400 nM	20 to 100 nM	20 to 100 nM	
Cc1nc2ccc(Oc3ccc4ncc(-c5cnn(CC#N)c5)nc4c3Cl)cc2[nH]1 [Compound 6]	20 to 100 nM	≥ 400 nM	20 to 100 nM	100 to 400 nM	
Cc1nc2ccc(Oc3ccc4ncc(-c5cnn(C6CCCNC6)c5)nc4c3Cl)cc2[nH]1 (centres unmarked) [Compound 7]	20 to 100 nM	100 to 400 nM	20 to 100 nM	20 to 100 nM	
Cc1nc2ccc(Oc3ccc4ncc(-c5cnn(CC6CCOC(C)(C)C6)c5)nc4c3Cl)cc2[nH]1 (centres unmarked) [Compound 8]	20 to 100 nM	100 to 400 nM	< 20 nM	20 to 100 nM	
Cc1nc2ccc(Oc3ccc4ncc(-c5cnn(CC6CCC(F)(F)CC6)c5)nc4c3Cl)cc2[nH]1 [Compound 9]	20 to 100 nM	≥ 400 nM	20 to 100 nM	20 to 100 nM	
Cc1nc2ccc(Oc3ccc4ncc(-c5cnn(CC6CCNC6)c5)nc4c3Cl)cc2[nH]1 (centres unmarked) [Compound 10]	20 to 100 nM	≥ 400 nM	20 to 100 nM	100 to 400 nM	
Cc1nc2ccc(Oc3ccc4ncc(-c5cnn(CC6CCNCC6)c5)nc4c3Cl)cc2[nH]1 [Compound 11]		≥ 400 nM	20 to 100 nM	100 to 400 nM	20 to 100 nM
Cc1nc2ccc(Oc3ccc4ncc(-c5cnn(CC6CCN(S(=O)(=O)C(F)F)CC6)c5)nc4c3Cl)cc2[nH]1 [Compound 12]	20 to 100 nM	100 to 400 nM	20 to 100 nM	20 to 100 nM	
Cc1nc2ccc(Oc3ccc4ncc(-c5cnn(CC6CCN(S(=O)(=O)CCO)CC6)c5)nc4c3Cl)cc2[nH]1 [Compound 13]	20 to 100 nM	≥ 400 nM	20 to 100 nM	20 to 100 nM	
Cc1nc2ccc(Oc3ccc4ncc(-c5cnn(CC6CCN(C)CC6)c5)nc4c3Cl)cc2[nH]1 [Compound 14]	< 20 nM	100 to 400 nM	< 20 nM	< 20 nM	
Cc1nc2ccc(Oc3ccc4ncc(-c5cnn(CCO)c5)nc4c3Cl)cc2[nH]1 [Compound 15]	20 to 100 nM	≥ 400 nM	20 to 100 nM	20 to 100 nM	
Cc1nc2ccc(Oc3ccc4ncc(-c5cnn(CC6CNC6)c5)nc4c3Cl)cc2[nH]1 [Compound 16]	100 to 400 nM	≥ 400 nM	100 to 400 nM	100 to 400 nM	
Cc1nc2ccc(Oc3ccc4ncc(-c5cnn(CC6COC6)c5)nc4c3Cl)cc2[nH]1 [Compound 17]	≥ 400 nM	≥ 400 nM	≥ 400 nM	≥ 400 nM	
Cc1nc2ccc(Oc3ccc4ncc(-c5cnn(CC6CCN(C(=O)C(F)(F)F)CC6)c5)nc4c3Cl)cc2[nH]1 [Compound 18]	20 to 100 nM	≥ 400 nM	20 to 100 nM	20 to 100 nM	
Cc1nc2ccc(Oc3ccc4ncc(-c5cnn(C)c5)nc4c3Cl)cc2[nH]1 [Compound 19]	100 to 400 nM	≥ 400 nM	20 to 100 nM	100 to 400 nM	
